US20060029628A1, “Use of a volatile cooling sensate on fibrous tissues to provide a sensation of rhinological decongestion” (priority 2004, published 2006)

Test: Vapour pressure of the pure substance
Assay type: physicochemical
Conditions: about 20° C.
Protocol: “Volatility” according to the present invention is considered to be present for substances having a liquid or sublimation vapour pressure of the pure substance at 20° C. of at least about 0.013 Pascal (0.0001 mmHg), or at least about 0.1 Pascal. Vapour pressure can be measured according to ASTM Standard E1194-01 of November 2001. In certain embodiments according to the present invention, an upper limit for the vapour pressure of pure material should be less than about 67 Pascal (0.5 mmHg), or less than about 13 Pascal (0.1 mmHg) each at 20° C. Evaluation of whether a composition does vaporize sufficiently can be made by a panel of at least five people or by vapour head evaluation, e.g. with gas chromatography.

CNC(=O)C(C)(C(C)C)C(C)C [WS-23, 2-Isopropyl-N,2,3-trimethylbutyramide]
vapour pressure: about 0.53 Pascal
vapour pressure (equivalent of the Pascal value): 0.004 mmHg
